{
  "source": "patent US10729678B2",
  "about": "“Preparation of and formulation comprising a MEK inhibitor” (Array BioPharma Inc., priority 2012, dated 2020)",
  "key": {"[1]": {"experiment": "Solubility of Compound A in solvents and solvent mixtures", "format": "physicochemical", "method": "Due to this low solubility, it is difficult to perform crystallization by standard cooling methods and to control crystal growth. […] This improvement in solubility contributes to an improvement in the purity profile of the final drug substance.\nAs discussed above, the crystallization process makes use of anti-solvent cooling system. In step d), water is added to the suspension or the cooled suspension mixture to provide a treated mixture. Water, which in general acts as an anti-solvent (solubility <0.01% over a wide temperature range), also unexpectedly acts as a solvent for Compound A when part of the water/methanol/tetrahydrofuran solvent system."}, "[2]": {"system": "unresectable, locally advanced or metastatic biliary cancer", "details": "28 patients with ≤1 prior systemic therapy; oral 60 mg twice daily; after at least 6 weeks of treatment; cited from earlier work"}, "[3]": {"system": "BRAFV600 or NRAS-mutant melanoma", "details": "patients with either BRAFV600 or NRAS-mutant melanoma; cited from earlier work"}},
  "data": [
    {"smiles": "Cn1cnc2c(F)c(Nc3ccc(Br)cc3F)c(C(=O)NOCCO)cc21", "note": "[Compound A, 6-(4-Bromo-2-fluorophenylamino)-7-fluoro-3-methyl-3H-benzoimidazole-5-carboxylic acid (2-hydroxyethyoxy)-amide]", "values": [
      {"measurement": "solvent mixture at which maximum solubility is reached", "setting": "[1]; 65° C., solubility decreases with further addition of water", "value": "water (24%), methanol (38%), and tetrahydrofuran (38%)"},
      {"measurement": "solubility in most standard solvents", "setting": "[1]; room temperature", "value": "less than 1%"},
      {"measurement": "increase of solubility on addition of water to solvent mixture", "setting": "[1]; tetrahydrofuran and methanol with water, compared to methanol and tetrahydrofuran without water", "value": "approximately 50%"},
      {"measurement": "solubility in water (anti-solvent)", "setting": "[1]; water, broad/wide temperature range", "value": "< 0.01", "unit": "%"},
      {"measurement": "complete regression (number of patients)", "setting": "[2]", "value": 1},
      {"measurement": "partial regression (number of patients)", "setting": "[2]", "value": 1},
      {"measurement": "stable disease diagnoses (number of patients)", "setting": "[2]", "value": 11},
      {"measurement": "effectiveness in treatment of patients", "setting": "[3]", "value": "effective"}
    ]}
  ]
}
